Here are results for three substances from patent publication US20100249419A1, “UTILIZATION OF NOVEL COMPOUNDS WITH AMYLOID AFFINITY AND METHOD OF PRODUCING THE SAME” (NIHON MEDI-PHYSICS CO., LTD., priority 2007, published 2010).

A short description of data set [1]: Partition coefficient based on the octanol extraction method. The following applies: octanol / 10 mmol/L phosphate buffer (pH 7.4). Type of data set: physicochemical. The procedure: Partition coefficients based on the octanol extraction method (hereinafter referred to as log Poctanol) were measured, which are generally known as an indicator of permeability of compounds through the blood-brain barrier (hereinafter referred to as BBB).
A diethyl ether solution of Compound 1 prepared in Example 3 (Example 8), a diethyl ether solution of Compound 2 prepared in Example 6 (Example 9), and a diethyl ether solution of [^123I]-IMPY prepared in Reference Example 1 (Comparative Example 4) were each diluted with 10 mg/mL ascorbic acid-containing physiological saline solution, and adjusted to a radioactive concentration of 20-30 MBq/mL. To 2 mL of octanol, 10 μL each of the prepared sample solutions was added, 2 mL of 10 mmol/L phosphate buffer (pH 7.4) was added, followed by stirring for 30 seconds. After the mixture was centrifuged with a low-speed centrifuge (2000 rpm×60 min.), the octanol layer and the water layer were sampled each in an amount of 1 mL, and subjected to measurement of radioactivity count with an autowell gamma system (Type: ARC-301B, manufactured by Aloka). Using the obtained radioactivity count, log Poctanol was calculated in accordance with the equation (2).
A diethyl ether solution (Example 20) of Compound 4 prepared in Example 16, a diethyl ether solution (Example 21) of Compound 6 prepared in Example 19, and a diethyl ether solution (Comparative Example 7) of [^123I]-IMPY were each diluted with a 10 mg/mL ascorbic acid-containing physiological saline solution to adjust to a radioactive concentration of 20-30 MBq/mL. To 2 mL of octanol, 10 μL each of the prepared sample solution was added, and 2 mL of 10 mmol/L phosphate buffer (pH 7.4) was further added, followed by stirring for 30 seconds. After the mixture was centrifuged with a low-speed centrifuge (2000 rpm×60 min.), the octanol layer and the water layer were sampled each in an amount of 1 mL, and subjected to measurement of radioactivity count with an autowell gamma system (Type: ARC-301B, manufactured by Aloka). Using the obtained radioactivity count, logPoctanol was calculated in accordance with the equation (4).

The target in data set [2] is T1, aggregated Aβ (Aβ1-42) injected into amygdaloid nucleus (Homo sapiens, UniProt P05067).
T1 construct: Aβ1-42 (manufactured by Wako) was dissolved in phosphate buffer (pH 7.4); purchased Wako
In words: Confirmation of imaging of amyloid in brain (ex vivo autoradiogram, Aβ1-42). Also on record: species or system male Wistar rat. The settings on record: brain slice 60 minutes after tail vein injection. Here is the method: The following experiment was carried out in order to examine whether amyloid in brain can be imaged by the compound of the present invention.
(1) Aβ1-42 (manufactured by Wako) was dissolved in phosphate buffer (pH 7.4) and shaken at 37° C. for 72 hours, to obtain a 1 mg/mL suspension of aggregated Aβ (hereinafter referred to as amyloid suspension in the Examples).
(2) 2.5 μL (corresponding to […]) of the amyloid suspension was injected into an amygdaloid nucleus on one side of a male Wistar rat (7-week old). As a control, 2.5 μL of a phosphate buffered physiological saline solution (pH 7.4) was injected into an amygdaloid nucleus on the other side of the rat. The rats were examined 1 day after the injection of the amyloid suspension and the phosphate buffered physiological saline solution (pH 7.4).
(3) Compound 1 was dissolved in a 10 mg/mL ascorbic acid-containing physiological saline solution to obtain a sample solution (22 MBq/mL in radioactivity concentration in the sample solution). This solution was injected under thiopental anesthesia into the rat through the tail vein (dosage: 0.5 mL, dosed radioactivity: 11-13 MBq equivalent).
(4) Brain was removed 60 minutes after the injection to prepare a brain slice of 10 μm in thickness with a microtome (type: CM3050S, manufactured by LEICA). The brain slice was exposed to an imaging plate for 20 hours, and then image analysis was carried out by use of a Bio-imaging Analyzer (type: BAS-2500; manufactured by FUJIFILM Corporation).
(5) After the completion of the image analysis using the Bio-imaging Analyzer, […]
Thus, it was confirmed that amyloid was deposited on the slice (FIG. 6b).
The same procedures as in Example 12 were performed except using a solution of Compound 2 in a 10 mg/mL ascorbic acid as a sample solution (the radioactive concentration of the sample solution was 25 MBq/mL).
(1) Aβ1-42 (manufactured by Wako) was dissolved in phosphate buffer (pH 7.4) and shaken at 37° C. for 72 hours, to obtain 1 mg/mL of a suspension of aggregated Aβ (hereinafter referred to as amyloid suspension in the Examples).
(3) A sample solution (30 MBq/mL in radioactivity concentration, Example 24) in which Compound 4 was dissolved in a 10 mg/mL ascorbic acid-containing physiological saline solution and a sample solution (30 MBq/mL in radioactivity concentration, Example 25) in which Compound 6 was dissolved in a 10 mg/mL ascorbic acid-containing physiological saline solution were prepared. This solution was injected under thiopental anesthesia into the rat through the tail vein (dosage: 0.5 mL, dosed radioactivity: 11-15 MBq equivalent).
Thus, it was confirmed that amyloid was deposited on the slice (FIG. 12 and FIG. 13).

T1 sequence (P05067 672-713): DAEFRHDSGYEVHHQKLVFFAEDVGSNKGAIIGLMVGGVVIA

The substance “2-(4′-ethoxyphenyl)-6-[^123I]iodoimidazo[1,2-a]pyridine [Compound 2]” showed a logPoctanol value in data set [1] (Table 4, Examples 8-9) of 2.1. Besides, the “Accumulation of radioactivity in amygdaloid nucleus on the amyloid-injected side” value in data set [2] was “marked accumulation of radioactivity”.
Taken in the same sequence, the figures for “2-[4′-(2″-hydroxyethoxy)phenyl]-6-[^123I]iodoimidazo[1,2-a]pyridine [Compound 1]” were 1.8 and “marked accumulation of radioactivity”.
In turn, “2-[4′-(3″-hydroxypropoxy)phenyl]-6-[^123I]iodoimidazo[1,2-a]pyridine [Compound 6]” had a logPoctanol value in data set [1] (Table 6, Examples 20-21) of 2.1. The “Accumulation of radioactivity in amygdaloid nucleus on the amyloid-injected side” value in data set [2] is given as “marked accumulation of radioactivity”.
